The structures appear in SMILES notation.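 Assay format: 96-well plates, 48-hour exposure. The concentration for full growth arrest is given as TGI.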

Among the test systems are SK-MEL-5 melanoma; MDA-MB-435; TK-10 renal; HT29 colon; M14 melanoma; U251 CNS; DU-145 prostate; MOLT-4 leukemia; MDA-MB-231 breast; UACC-257 melanoma; MALME-3M melanoma; CAKI-1 renal; SF-539 CNS; NCI-H23 lung; OVCAR-8 ovarian; UO-31 renal; SK-OV-3 ovarian; HCT-116 colon; MCF7 breast; SK-MEL-2 melanoma.
What all share (assay): inhibition of tumour cell growth, NCI panel, 48 h

Regarding `CC(=O)[C@@H]1C/C(=C\OCc2ccccc2)O[C@H]1C`, the TGI in the experiment with SK-MEL-5 melanoma, with MDA-MB-435, in the experiment with TK-10 renal, in the experiment on HT29 colon, with M14 melanoma and with U251 CNS was greater than 100 µM each time. Further, the TGI in the experiment on DU-145 prostate, with MOLT-4 leukemia, in the experiment with MDA-MB-231 breast, in the experiment with UACC-257 melanoma, in the experiment on MALME-3M melanoma and in the experiment with CAKI-1 renal was greater than 100 µM each time. Moreover, the TGI with SF-539 CNS, with NCI-H23 lung, in the experiment on OVCAR-8 ovarian, in the experiment on UO-31 renal, in the experiment on SK-OV-3 ovarian and in the experiment with HCT-116 colon was greater than 100 µM in each case.
Turning to `O=S(CC1(O)CCCCC1)c1ccccc1` (centres undefined), the TGI in the experiment with SK-MEL-5 melanoma, in the experiment on TK-10 renal, with HT29 colon, with M14 melanoma, with U251 CNS and in the experiment on MCF7 breast was greater than 100 µM in each case. Also, the TGI in the experiment on DU-145 prostate, with MOLT-4 leukemia, in the experiment on MDA-MB-231 breast, in the experiment with UACC-257 melanoma, in the experiment with MALME-3M melanoma and with CAKI-1 renal was greater than 100 µM throughout. For the same molecule, the TGI with NCI-H23 lung, in the experiment with OVCAR-8 ovarian, in the experiment on UO-31 renal, in the experiment with SK-OV-3 ovarian, in the experiment on HCT-116 colon and in the experiment with SK-MEL-2 melanoma was greater than 100 µM throughout.
For the molecule `CCOC(=O)N1c2c(ccn2C)-c2ccn(C)c2N1C(=O)OCC`, the TGI is greater than 100 µM in the experiment on SK-MEL-5 melanoma; 30.1 µM in the experiment with HT29 colon; 30.8 µM with M14 melanoma; 40.4 µM with MOLT-4 leukemia; 37.1 µM in the experiment on MALME-3M melanoma; 44.8 µM in the experiment with CAKI-1 renal. Besides, the TGI in the experiment with SF-539 CNS came out at 38.2 µM; in the experiment with OVCAR-8 ovarian it was 27.9 µM; in the experiment with UO-31 renal it was 35.4 µM; in the experiment with SK-OV-3 ovarian, 77.3 µM; in the experiment with HCT-116 colon, 29.4 µM; in the experiment with SK-MEL-2 melanoma it was 38.8 µM.
Regarding `Cc1cccc(C)c1NC(=O)C(=O)CC(=O)/C=C/c1ccccc1`, the TGI with SK-MEL-5 melanoma, in the experiment with MDA-MB-435, with TK-10 renal, in the experiment on HT29 colon, in the experiment with M14 melanoma and with U251 CNS was greater than 100 µM each time. The TGI with MCF7 breast, in the experiment with MOLT-4 leukemia, with MDA-MB-231 breast, in the experiment with UACC-257 melanoma, in the experiment on MALME-3M melanoma and in the experiment on CAKI-1 renal was greater than 100 µM in each case. Also, the TGI in the experiment with SF-539 CNS, in the experiment with NCI-H23 lung, with OVCAR-8 ovarian, in the experiment with UO-31 renal, with SK-OV-3 ovarian and with HCT-116 colon was greater than 100 µM throughout. In the experiment on SK-MEL-2 melanoma, this molecule showed a TGI greater than 100 µM.
With `COc1ccc(/C=C2\CN(C)C/C(=C\c3ccc(OC)cc3)C2=O)cc1`, the TGI in the experiment on SK-MEL-5 melanoma, with MDA-MB-435, in the experiment with TK-10 renal, in the experiment with HT29 colon, in the experiment on M14 melanoma and with U251 CNS was greater than 100 µM throughout. Also, the TGI in the experiment on DU-145 prostate, with MOLT-4 leukemia, in the experiment with MDA-MB-231 breast, with MALME-3M melanoma, with CAKI-1 renal and in the experiment with SF-539 CNS was greater than 100 µM throughout. Further, the TGI in the experiment with NCI-H23 lung, with UO-31 renal, with HCT-116 colon and in the experiment with SK-MEL-2 melanoma was greater than 100 µM each time.
In the case of `Cc1n[nH]c(=O)n1/N=C/c1ccc(F)cc1`, the TGI in the experiment with MDA-MB-435, in the experiment on M14 melanoma, in the experiment with DU-145 prostate, in the experiment with MOLT-4 leukemia, in the experiment with UACC-257 melanoma and in the experiment on CAKI-1 renal was greater than 100 µM throughout. In addition, the TGI in the experiment with SF-539 CNS, in the experiment with NCI-H23 lung, in the experiment on OVCAR-8 ovarian, in the experiment with UO-31 renal, in the experiment with SK-OV-3 ovarian and with HCT-116 colon was greater than 100 µM throughout.
As for `Nc1ccc2c(=O)cc(-c3cccs3)[nH]c2n1`, the TGI with SK-MEL-5 melanoma is 21 µM; in the experiment on TK-10 renal, greater than 100 µM; with HT29 colon, greater than 72 µM; in the experiment with M14 melanoma, greater than 54.8 µM; in the experiment with U251 CNS it was greater than 45.6 µM; in the experiment with MCF7 breast, greater than 100 µM. The TGI in the experiment with DU-145 prostate is greater than 100 µM; with MOLT-4 leukemia it was greater than 35.5 µM; in the experiment with MDA-MB-231 breast it was greater than 100 µM; in the experiment on UACC-257 melanoma, greater than 100 µM; with MALME-3M melanoma, greater than 100 µM; in the experiment on CAKI-1 renal it was greater than 100 µM. Moreover, the TGI is 6.17 µM in the experiment with SF-539 CNS; greater than 26.3 µM in the experiment on NCI-H23 lung; greater than 60.5 µM in the experiment with OVCAR-8 ovarian; 26.6 µM in the experiment on UO-31 renal; greater than 100 µM in the experiment on SK-OV-3 ovarian; greater than 50.8 µM with HCT-116 colon. The same molecule returned a TGI in the experiment with SK-MEL-2 melanoma greater than 100 µM.
Regarding `CC(=O)OC[C@]1(C)CCCC2(C)C1CCC1C=C(C)[C@H]3CCC12C3` (some centres undefined), the TGI in the experiment with SK-MEL-5 melanoma, in the experiment with TK-10 renal, in the experiment with HT29 colon, in the experiment with M14 melanoma, in the experiment on U251 CNS and in the experiment on MOLT-4 leukemia was greater than 100 µM throughout. The TGI is greater than 100 µM in the experiment on UACC-257 melanoma; greater than 100 µM in the experiment with MALME-3M melanoma; greater than 100 µM in the experiment on CAKI-1 renal; 66.8 µM in the experiment with SF-539 CNS; greater than 100 µM in the experiment on NCI-H23 lung; greater than 100 µM with OVCAR-8 ovarian. Further, the TGI with UO-31 renal, in the experiment with SK-OV-3 ovarian and in the experiment with HCT-116 colon was greater than 100 µM throughout.

Values taken from PubChem BioAssay (NCI).
